{"source": "patent US8865716B2", "about": "“Dihydropteridinones II” (Boehringer Ingelheim International GmbH, priority 2013, dated 2014)"}
{"test_system": "Aβ42", "test": "Aβ42 production in H4 neuroglioma cells stably expressing human APP695 (Meso Scale Discovery electrochemiluminescence assay)", "format": "cell-based", "settings": "higher ratio = more specific inhibition of Aβ42 over Aβ total", "method": "Cells were plated out to near confluency. The compounds to be tested were received as 10 mM stocks in 100% DMSO. A dilution series was initially generated in 100% DMSO and then diluted 200-fold in cell culture media such that the tested concentration range was 30 μM to 0.1 nM and the final DMSO concentration was 0.5%. The diluted compounds were incubated with the cells for 22 hours in an incubator at 37° C. and 5% CO2. Aβ42 as well as Aβ total levels were then measured post-incubation from the supernatant of the cells. Aβ42 levels were determined using a specific electrochemiluminescence assay provided by Meso Scale Discovery (Catalog #L21CA-1) according to the manufacturer's protocol. Aβ total levels were likewise determined using a specific electrochemiluminescence assay provided by Meso Scale Discovery (Catalog #L21ZA-1) according to the manufacturer's protocol.\nIn order to absolutely define the described compounds as modulators of γ-Secretase as opposed to simply inhibitors of γ-Secretase, measurements of not only Aβ42 but also Aβ total are performed."}
{"smiles": "COc1cc(Nc2ncc3c(n2)N(C)C2(CCOCC2)C(=O)N3C)ccc1-c1cnc(C)o1", "note": "[Example 1]", "Ratio Aβ(total)/Aβ42 (Aβ total IC50/Aβ42 IC50)": ">244"}
{"smiles": "COc1cc(Nc2ncc3c(n2)N(C)C2(CCOCC2)C(=O)N3C)ccc1-n1cnc(C)c1", "note": "[Example 2]", "Ratio Aβ(total)/Aβ42 (Aβ total IC50/Aβ42 IC50)": 89}
{"smiles": "Cc1ncc(-c2ccc(Nc3ncc4c(n3)N(C)C3(CCOCC3)C(=O)N4C)cn2)o1", "note": "[Example 3]", "Ratio Aβ(total)/Aβ42 (Aβ total IC50/Aβ42 IC50)": ">6"}
{"smiles": "Cc1ncc(-c2ccc(Nc3nc(C)c4c(n3)N(C)C3(CCOCC3)C(=O)N4C)cn2)o1", "note": "[Example 5]", "Ratio Aβ(total)/Aβ42 (Aβ total IC50/Aβ42 IC50)": ">9"}
{"smiles": "COc1cc(Nc2ncc3c(n2)N(C)C2(CCOC2)C(=O)N3C)ccc1-n1cnc(C)c1", "note": "(stereo not shown) [Example 6]", "Ratio Aβ(total)/Aβ42 (Aβ total IC50/Aβ42 IC50)": ">136"}
{"smiles": "COc1cc(Nc2ncc3c(n2)N(C)C2(CCOC2)C(=O)N3C)ccc1-c1cnc(C)o1", "note": "(stereo not shown) [Example 7]", "Ratio Aβ(total)/Aβ42 (Aβ total IC50/Aβ42 IC50)": ">315"}
{"smiles": "Cc1ncc(-c2ccc(Nc3ncc4c(n3)N(C)C3(CCOC3)C(=O)N4C)cn2)o1", "note": "(stereo not shown) [Example 8]", "Ratio Aβ(total)/Aβ42 (Aβ total IC50/Aβ42 IC50)": ">10"}
{"smiles": "COc1cc(Nc2ncc3c(n2)N(C)C2(CCOCC2)C(=O)N3)ccc1-n1cnc(C)c1", "note": "[Example 9]", "Ratio Aβ(total)/Aβ42 (Aβ total IC50/Aβ42 IC50)": ">101"}
{"smiles": "COc1cc(Nc2ncc3c(n2)N(C)C2(CCOC2)C(=O)N3)ccc1-n1cnc(C)c1", "note": "(stereo not shown) [Example 10]", "Ratio Aβ(total)/Aβ42 (Aβ total IC50/Aβ42 IC50)": 46}
{"smiles": "COCCN1C(=O)C2(CCOCC2)N(C)c2nc(Nc3ccc(-n4cnc(C)c4)c(OC)c3)ncc21", "note": "[Example 11]", "Ratio Aβ(total)/Aβ42 (Aβ total IC50/Aβ42 IC50)": 26}
{"smiles": "COCCN1C(=O)C2(CCOCC2)N(C)c2nc(Nc3ccc(-c4ccnc(C)c4)cc3)ncc21", "note": "[Example 12]", "Ratio Aβ(total)/Aβ42 (Aβ total IC50/Aβ42 IC50)": 11}
{"smiles": "COCCN1C(=O)C2(CCOCC2)N(C)c2nc(Nc3ccc(-n4cnc(C)n4)c(OC)c3)ncc21", "note": "[Example 13]", "Ratio Aβ(total)/Aβ42 (Aβ total IC50/Aβ42 IC50)": ">13"}
{"smiles": "COCCN1C(=O)C2(CCOC2)N(C)c2nc(Nc3ccc(-c4ccnc(C)c4)cc3)ncc21", "note": "(stereo not shown) [Example 14]", "Ratio Aβ(total)/Aβ42 (Aβ total IC50/Aβ42 IC50)": ">27"}
{"smiles": "COCCN1C(=O)C2(CCOC2)N(C)c2nc(Nc3ccc(-n4cnc(C)n4)c(OC)c3)ncc21", "note": "(stereo not shown) [Example 15]", "Ratio Aβ(total)/Aβ42 (Aβ total IC50/Aβ42 IC50)": ">15"}
{"smiles": "COCCN1C(=O)C2(CCOC2)N(C)c2nc(Nc3ccc(-n4cnc(C)c4)c(OC)c3)ncc21", "note": "(stereo not shown) [Example 16]", "Ratio Aβ(total)/Aβ42 (Aβ total IC50/Aβ42 IC50)": 88}
{"smiles": "CCCN1C(=O)C2(CCOCC2)N(C)c2nc(Nc3ccc(-n4cnc(C)c4)c(OC)c3)ncc21", "note": "[Example 17]", "Ratio Aβ(total)/Aβ42 (Aβ total IC50/Aβ42 IC50)": 65}
{"smiles": "Cc1cn(-c2ccc(Nc3ncc4c(n3)NC3(CCOC3)C(=O)N4C)cc2C#N)cn1", "note": "(stereo not shown) [Example 19]", "Ratio Aβ(total)/Aβ42 (Aβ total IC50/Aβ42 IC50)": ">257"}
{"smiles": "COc1cc(Nc2ncc3c(n2)NC2(CCOC2)C(=O)N3C)ccc1-n1cnc(C)c1", "note": "(stereo not shown) [Example 20]", "Ratio Aβ(total)/Aβ42 (Aβ total IC50/Aβ42 IC50)": ">90"}
{"smiles": "COc1cc(Nc2ncc3c(n2)NC2(CCOC2)C(=O)N3CC2CCOCC2)ccc1-n1cnc(C)c1", "note": "(stereo not shown) [Example 22]", "Ratio Aβ(total)/Aβ42 (Aβ total IC50/Aβ42 IC50)": ">9"}
{"smiles": "COc1cc(Nc2ncc3c(n2)N(CC2CCOCC2)C2(CCOC2)C(=O)N3CC2CCOCC2)ccc1-n1cnc(C)c1", "note": "(stereo not shown) [Example 24]", "Ratio Aβ(total)/Aβ42 (Aβ total IC50/Aβ42 IC50)": ">10"}
{"smiles": "COc1cc(Nc2ncc3c(n2)N(C)C2(COCCOC2)C(=O)N3)ccc1-n1cnc(C)c1", "note": "[Example 25]", "Ratio Aβ(total)/Aβ42 (Aβ total IC50/Aβ42 IC50)": 91}
{"smiles": "COc1cc(Nc2ncc3c(n2)N(C)C2(CCOC2)C(=O)N3CC2CCOCC2)ccc1-n1cnc(C)c1", "note": "(stereo not shown) [Example 26]", "Ratio Aβ(total)/Aβ42 (Aβ total IC50/Aβ42 IC50)": 46}
{"smiles": "COc1cc(Nc2ncc3c(n2)N(C)C2(COCCOC2)C(=O)N3C)ccc1-n1cnc(C)c1", "note": "[Example 27]", "Ratio Aβ(total)/Aβ42 (Aβ total IC50/Aβ42 IC50)": ">112"}
{"smiles": "COc1cc(Nc2ncc3c(n2)NC2(CCOC2)C(=O)N3C2COC2)ccc1-n1cnc(C)c1", "note": "(stereo not shown) [Example 28]", "Ratio Aβ(total)/Aβ42 (Aβ total IC50/Aβ42 IC50)": ">3"}
{"smiles": "COc1cc(Nc2ncc3c(n2)NC2(CCOC2)C(=O)N3CCC(C)C)ccc1-n1cnc(C)c1", "note": "(stereo not shown) [Example 29]", "Ratio Aβ(total)/Aβ42 (Aβ total IC50/Aβ42 IC50)": 39}
{"smiles": "COCCN1c2nc(Nc3ccc(-n4cnc(C)c4)c(OC)c3)nc(CC(C)C)c2N(C)C(=O)C12CCOC2", "note": "(stereo not shown) [Example 30]", "Ratio Aβ(total)/Aβ42 (Aβ total IC50/Aβ42 IC50)": 96}
{"smiles": "COCCN1c2nc(Nc3ccc(-c4cnc(C)o4)c(OC)c3)nc(CC(C)C)c2N(C)C(=O)C12CCOC2", "note": "(stereo not shown) [Example 31]", "Ratio Aβ(total)/Aβ42 (Aβ total IC50/Aβ42 IC50)": 47}
{"smiles": "CCc1nc(Nc2ccc(-n3cnc(C)c3)c(C#N)c2)nc2c1N(C)C(=O)C1(CCOC1)N2C", "note": "(stereo not shown) [Example 35]", "Ratio Aβ(total)/Aβ42 (Aβ total IC50/Aβ42 IC50)": 180}
{"smiles": "Cc1ncc(-c2ccc(Nc3ncc4c(n3)N(C)C3(CCc5ccccc5C3)C(=O)N4C)cn2)o1", "note": "(stereo not shown) [Example 37]", "Ratio Aβ(total)/Aβ42 (Aβ total IC50/Aβ42 IC50)": 29}
{"smiles": "COc1cc(Nc2ncc3c(n2)N(C)C2(CCOCC2)C(=O)N3C2CC2)ccc1-n1cnc(C)c1", "note": "[Example 37b]", "Ratio Aβ(total)/Aβ42 (Aβ total IC50/Aβ42 IC50)": 47}
{"smiles": "COc1cc(Nc2ncc3c(n2)N(C)C2(CCOCC2)C(=O)N3c2cc(F)cc(F)c2)ccc1-n1cnc(C)c1", "note": "[Example 37c]", "Ratio Aβ(total)/Aβ42 (Aβ total IC50/Aβ42 IC50)": 75}
{"smiles": "COc1cc(Nc2nc3c(c(C(F)(F)F)n2)N(C)C(=O)C2(CCOCC2)N3C)ccc1-n1cnc(C)c1", "note": "[Example 37d]", "Ratio Aβ(total)/Aβ42 (Aβ total IC50/Aβ42 IC50)": ">36"}
{"smiles": "COc1cc(Nc2ncc3c(n2)N(C)C2(CCOC2)C(=O)N3CC(F)(F)F)ccc1-n1cnc(C)c1", "note": "(stereo not shown) [Example 37e]", "Ratio Aβ(total)/Aβ42 (Aβ total IC50/Aβ42 IC50)": 82}
{"smiles": "COc1cc(Nc2ncc3c(n2)N(C)C2(CCOCC2)C(=O)N3c2ccc(F)cc2)ccc1-n1cnc(C)c1", "note": "[Example 37f]", "Ratio Aβ(total)/Aβ42 (Aβ total IC50/Aβ42 IC50)": 55}
{"smiles": "COc1cc(Nc2ncc3c(n2)N(C)C2(CCOC2)C(=O)N3C2CC2)ccc1-n1cnc(C)c1", "note": "(stereo not shown) [Example 37g]", "Ratio Aβ(total)/Aβ42 (Aβ total IC50/Aβ42 IC50)": 58}
{"smiles": "COc1cc(Nc2ncc3c(n2)N(C)C2(CCOC2)C(=O)N3CC(F)F)ccc1-n1cnc(C)c1", "note": "(stereo not shown) [Example 37h]", "Ratio Aβ(total)/Aβ42 (Aβ total IC50/Aβ42 IC50)": 85}
{"smiles": "CCc1nc(Nc2cnc(-n3cnc(C)c3)c(OC)c2)nc2c1N(C)C(=O)C1(CC1)N2C", "note": "[Example 37i]", "Ratio Aβ(total)/Aβ42 (Aβ total IC50/Aβ42 IC50)": 54}
{"smiles": "COc1cc(Nc2ncc3c(n2)N(C)C2(CCOCC2)C(=O)N3Cc2ccc(F)cc2F)ccc1-n1cnc(C)c1", "note": "[Example 37j]", "Ratio Aβ(total)/Aβ42 (Aβ total IC50/Aβ42 IC50)": 57}
{"smiles": "COc1cc(Nc2ncc3c(n2)N(C)C2(CCOC2)C(=O)N3C(C)c2ccccn2)ccc1-n1cnc(C)c1", "note": "(stereo not shown) [Example 37k]", "Ratio Aβ(total)/Aβ42 (Aβ total IC50/Aβ42 IC50)": 88}
{"smiles": "COc1cc(Nc2ncc3c(n2)N(C2CCCC2)C2(CC2)C(=O)N3C)ccc1-n1cnc(C)c1", "note": "[Example 38]", "Ratio Aβ(total)/Aβ42 (Aβ total IC50/Aβ42 IC50)": ">15"}
{"smiles": "COc1cc(Nc2ncc3c(n2)N(C)C2(CCCCOC2)C(=O)N3C)ccc1-n1cnc(C)c1", "note": "(stereo not shown) [Example 39]", "Ratio Aβ(total)/Aβ42 (Aβ total IC50/Aβ42 IC50)": 91}
{"smiles": "COc1cc(Nc2nc3c(c(C(C)(C)O)n2)N(C)C(=O)C2(CCOC2)N3C)ccc1-c1cnc(C)o1", "note": "(stereo not shown) [Example 40]", "Ratio Aβ(total)/Aβ42 (Aβ total IC50/Aβ42 IC50)": ">62"}
{"smiles": "COc1cc(Nc2ncc3c(n2)N(C)C2(COC2)C(=O)N3C)ccc1-n1cnc(C)c1", "note": "[Example 41]", "Ratio Aβ(total)/Aβ42 (Aβ total IC50/Aβ42 IC50)": ">25"}
{"smiles": "COc1cc(Nc2ncc3c(n2)N(C)C2(CCCOCC2)C(=O)N3C)ccc1-n1cnc(C)c1", "note": "(stereo not shown) [Example 42]", "Ratio Aβ(total)/Aβ42 (Aβ total IC50/Aβ42 IC50)": 51}
{"smiles": "COc1cc(Nc2ncc3c(n2)N(C)C2(CC2)C(=O)N3CC(F)(F)F)ccc1-n1cnc(C)c1", "note": "[Example 44]", "Ratio Aβ(total)/Aβ42 (Aβ total IC50/Aβ42 IC50)": 50}
{"smiles": "COc1cc(Nc2ncc3c(n2)N(C)C2(CCC2)C(=O)N3CC(F)(F)F)ccc1-c1cnc(C)o1", "note": "[Example 45]", "Ratio Aβ(total)/Aβ42 (Aβ total IC50/Aβ42 IC50)": ">517"}
{"smiles": "COc1cc(Nc2ncc3c(n2)N(C)C2(CC2)C(=O)N3c2ccc(F)cc2)ccc1-n1cnc(C)c1", "note": "[Example 46]", "Ratio Aβ(total)/Aβ42 (Aβ total IC50/Aβ42 IC50)": ">306"}
{"smiles": "COc1cc(Nc2ncc3c(n2)N(C)C2(CC2)C(=O)N3C2COC2)ccc1-n1cnc(C)c1", "note": "[Example 47]", "Ratio Aβ(total)/Aβ42 (Aβ total IC50/Aβ42 IC50)": 98}
{"smiles": "COc1cc(Nc2ncc3c(n2)N(C)C2(CCOC2)C(=O)N3c2ccc(C(F)(F)F)cn2)ccc1-n1cnc(C)c1", "note": "(stereo not shown) [Example 48]", "Ratio Aβ(total)/Aβ42 (Aβ total IC50/Aβ42 IC50)": 22}
{"smiles": "COc1cc(Nc2ncc3c(n2)N(C)C2(CC4CCC2C4)C(=O)N3C)cnc1-n1cnc(C)c1", "note": "(stereo not shown) [Example 49]", "Ratio Aβ(total)/Aβ42 (Aβ total IC50/Aβ42 IC50)": 69}
{"smiles": "COc1cc(Nc2ncc3c(n2)N(C)C2(CC2)C(=O)N3CC(F)(F)F)cnc1-n1cnc(C)c1", "note": "[Example 50]", "Ratio Aβ(total)/Aβ42 (Aβ total IC50/Aβ42 IC50)": ">147"}
{"smiles": "COc1cc(Nc2ncc3c(n2)N(C)C2(CC2)C(=O)N3CC(F)F)ccc1-n1cnc(C)c1", "note": "[Example 52]", "Ratio Aβ(total)/Aβ42 (Aβ total IC50/Aβ42 IC50)": 61}
